According to patent US20210085692A1, “AGENTS, COMPOSITIONS AND METHODS FOR TREATING AND PREVENTING ALZHEIMER'S DISEASE” (UNIVERSITY OF SOUTHERN CALIFORNIA, priority 2018, published 2021):

Key:
[1] = system: patients with mild cognitive impairment due to AD or mild AD or dementia; test: Phase 1 clinical trial: MRI indicators of regeneration (gray matter, hippocampal volume); assay type: in vivo, human
[2] = intravenous doses in the same dose range, earlier studies; cited from earlier work
[3] = system: patients with mild cognitive impairment due to AD or mild AD or dementia; test: Phase 1 clinical trial: safety, tolerability and maximally tolerated dose; assay type: in vivo, human
Protocol: (§1) Clinical Trials were carried out in adult humans (see gov Identifier: NCT02221622 for the ongoing Phase 1b/2a clinical trial at https://clinicaltrials.gov/ct2/show/NCT02221622).
(§2) A randomized double-blind, placebo controlled, multiple ascending dose, phase 1 clinical trial was conducted in patients with mild cognitive impairment due to AD or mild AD or dementia.
Participants were randomly assigned to receive weekly intravenous infusion of either 2 mg, 4 mg, or 6 mg of Allo or placebo (N=6/group) for 12 weeks. Primary outcomes were to assess safety, tolerability and determine maximally tolerated dose (MTD). Secondary exploratory outcomes were the feasibility and impact of Allo on MRI indicators of regeneration and cognition. […]
The trial evaluated three doses (2.0, 4.0 and 6.0 mg) of allopregnanolone (Allo) in a delivery vehicle of 6% sulfobutylether-β-cyclodextrin and 0.9% sodium chloride and placebo containing an equal volume of 0.9% sodium chloride for injection USP administered by intravenous sinfusion once per week for 12 weeks. […] Grouped differences from placebo-treated participants were evaluated in an exploratory fashion using the outcomes planned for the larger phase 2, proof of concept trial in order to obtain parameter estimates for the trial design.] […]

[4] = system: patients with mild cognitive impairment due to AD or mild AD or dementia; test: Phase 1 clinical trial: cognition (ADAScog14, Cog state); assay type: in vivo, human; conditions: 12 weeks, once per week
Protocol: as §2
(§3) Participants were randomly assigned to receive weekly intravenous infusion of either 2 mg, 4 mg, or 6 mg of Allo or placebo (N=6/group) for 12 weeks. Primary outcomes were to assess safety, tolerability and determine maximally tolerated dose (MTD). Secondary exploratory outcomes were the feasibility and impact of Allo on MRI indicators of regeneration and cognition. Lymphocyte derived iPSCs differentiated to neural stem cells were used to develop biomarker strategy to identify potential regenerative responders.
The standard Phase I dose escalation double-blind, placebo-controlled, single site trial included 24 research participants in three dose cohorts. […]
The trial evaluated three doses (2.0, 4.0 and 6.0 mg) of allopregnanolone (Allo) in a delivery vehicle of 6% sulfobutylether-β-cyclodextrin and 0.9% sodium chloride and placebo containing an equal volume of 0.9% sodium chloride for injection USP administered by intravenous sinfusion once per week for 12 weeks. […] Grouped differences from placebo-treated participants were evaluated in an exploratory fashion using the outcomes planned for the larger phase 2, proof of concept trial in order to obtain parameter estimates for the trial design.]

[5] = Phase 1 multiple ascending dose clinical trial: plasma levels after weekly intravenous infusion; assay type: in vivo, human; conditions: for Cmax: human, plasma
Protocol: as §1, §2, §3
The standard Phase I dose escalation double-blind, placebo-controlled, single site trial included 24 research participants in three dose cohorts. Each cohort included 8 research participants randomized to drug or placebo in a 6:2 allocation ratio. Cohorts as follows: • Dosing cohort 1) 2 mg Allo or placebo • Dosing cohort 2) 4 mg Allo or placebo • Dosing cohort 3) 6 mg Allo or placebo Each dose cohort was separated by 6 weeks to process, obtain, and assess all safety and tolerability data.
The trial evaluated three doses (2.0, 4.0 and 6.0 mg) of allopregnanolone (Allo) in a delivery vehicle of 6% sulfobutylether-β-cyclodextrin and 0.9% sodium chloride and placebo containing an equal volume of 0.9% sodium chloride for injection USP administered by intravenous sinfusion once per week for 12 weeks. Although the dosing study is not powered to detect statistically significant treatment differences on MRI outcomes and cognition, the MRI is required per FDA safety concerns with respect to amyloid-related imaging abnormalities, such as micro hemorrhages, as per FDA correspondence. Grouped differences from placebo-treated participants were evaluated in an exploratory fashion using the outcomes planned for the larger phase 2, proof of concept trial in order to obtain parameter estimates for the trial design.]
Allo dose selection of 2.0, 4.0 and 6.0 mg was determined by pre-clinical dose response analyses for neurogenesis, an IV bridging study in 3×TgAD mice, prior clinical studies, physiologically-based pharmacokinetics (PBPK) modeling and simulations of pharmacodynamic responses using available pre-clinical and clinical data of non-sedative to mildly sedative doses Planned study Allo doses are within the FDA requirement to not exceed 157 nmol/L (50 ng/ml) plasma concentration Planned Allo dose equivalencies based on 70 kg human are: 2.0 mg=0.028 mg/kg; 4.0 mg=0.056/mg/kg; 6.0 mg=0.084 mg/kg. With respect to safety, intravenous doses of Allo in the same dose range as those for this trial have been administered previously with acceptable safety and. […] Allo in sulfobutylether-β-cyclodextrin and 0.9% sodium chloride formulation was administered intravenously over 30 minutes once per week for 12 weeks. Participants were monitored under medical supervision for a minimum of two hours after each dose. The regimen for Allo administration is based on preclinical analyses that indicate that a once per week treatment regimen results in increased neurogenesis with reduction in AD pathology.

[6] = system: humanized ApoE3,3, ApoE4,4 and ApoE3,4 mice; test: Novel Object Recognition (NOR) memory test; assay type: in vivo; conditions: for Novel Object Discrimination Index / Novel Object Exploration time: vs saline
Protocol: To access impact of Allopregnanolone (Allo) on memory function, humanized ApoE3,3, ApoE4,4 and ApoE3,4 mice were tested using Novel Object Recognition (NOR) in accordance with published literature (Antunes and Biala, Cogn Process. 2012 May; 13(2): 93-110; Ennaceur, Behav Brain Res. 2010 Dec. 31; 215(2):244-54. doi: 10.1016/j.bbr.2009.12.036. Epub 2010 Jan. 7; Leger et al., Nat Protoc. 2013 December; 8(12):2531-7. doi: 10.1038/nprot.2013.155. Epub 2013 Nov. 21; Piterkin et al., Learn. Mem., 15 (2008), pp. 785-791; Taglialatela et al., Behav Brain Res. 200(1): 95-99. 2009).
Behavioral NOR testing was conducted following 24 weekly injections of Allopregnanolone (Allo; 1.5 mg/mL) or saline (0.9%). The Allo and saline used to treat the mice were identical to the Allo and saline used in the clinical trial (ClinicalTrials.gov Identifier: NCT02221622).
Behavioral testing and analysis of behavioral outcomes were conducted blind to the experimental condition. Code for treatment groups was unblinded for statistical analyses by analyst who was independent of behavioral testing.
Difference in exploration time (in seconds) was calculated by subtracting the time spent exploring the familiar object from that of the novel object (Tn−Tf) and denoted by ‘Df’. Second, a ratio of the difference in exploration time to the total time spent exploring was calculated (Tn−Tf/Tn+Tf) and denoted by Discrimination Index (DI). The DI can vary between +1 and −1, where a positive score indicates more time spent with the novel object, a negative score indicates more time spent with the familiar object, and a zero score indicates a null preference (Antunes and Biala, 2012). The DI adjusts for difference in total exploration time (Broadbent et al.). Statistical analyses were conducted using Mann-Whitney test and p-value of less than 0.05 was considered significant.

[7] = ApoE3:3 females and males, 24 weekly injections

SMILES: CC(=O)[C@H]1CC[C@H]2[C@@H]3CC[C@H]4C[C@H](O)CC[C@]4(C)[C@H]3CC[C@]12C [Allo, 3α-hydroxy-5α-pregnan-20-one]
- Left hippocampal volume (subfield analysis) ([1]; Allo 4 mg cohort, 12 weeks): increase in left hippocampal volume
- Brain mass ([1]; human subjects over 55 years having Apo E4 genetic marker): increased brain mass
- MRI based indicators of gray matter volume ([1]; structural analysis, 12 weeks): consistent with regeneration in select brain regions
- TEAEs (nausea, mild sedation, fatigue, flushing, anxiety) [2]: mild and transient
- MTD, established by onset of sedation ([3]; intravenous infusion): > 6 mg
- Adverse effects, serious adverse events, ARIA ([3]; twelve week exposure, multiple doses once per week): no reportable adverse effects, serious adverse events or ARIA
- Cognitive function measured by ADAScog14 [4]: not improved
- Cog state indicators ([4]; some indicators): consistent with improvement
- Correlation (R) of Cmax with Allo delivered in mg/kg dose ([5]; 2, 4 and 6 mg cohorts): 0.77
- Time to peak plasma levels ([5]; from start of 30 minute intravenous infusion, AD patients): ≤ 30 min
- Cmax ([5]; 2 mg intravenous infusion): 63 ± 21 nM
- Cmax ([5]; 4 mg intravenous infusion): 130 ± 26 nM
- Cmax ([5]; 6 mg intravenous infusion): 248 ± 84 nM
- Novel Object Discrimination Index [6, 7]: no effect
- Novel Object Exploration time [6, 7]: no effect, either positive or negative
- Exploration of the novel object ([6]; ApoE 3:4 female mice, p=0.05): significantly increased
- Ability to discriminate between novel vs familiar object (Discrimination Index) ([6]; ApoE 3:4 female mice, p=0.06): trended towards a significant increase
- Novel Object Discrimination Index ([6]; ApoE 4/4 females and males, p<0.05): significantly increased
- Novel Object Exploration time ([6]; ApoE 4:4 females, 24 weekly injections): significantly increased
- Novel Object Exploration time ([6]; ApoE4:4 males, 24 weekly injections): trended towards an increase
